What is called IC50 is the concentration that inhibits the measured activity by half. A low value points to greater potency in that assay.

Results on 27 compounds are retold here after patent US8497380B2, “Substituted acetophenones useful as PDE4 inhibitors” (Leo Pharma A/S, priority 2006, dated 2013).

The assay has as its system Human peripheral blood mononuclear cells (PBMC). Description: TNFalfa-Release. The note with it: inhibition of TNF-a secretion, PBMC pre-incubated 30 minutes, stimulated 18 hours with lipopolysaccharide. It is filed as cell-based. On the procedure: Human peripheral blood mononuclear cells (PBMC) are Isolated from buffy coats. The blood is mixed with saline at a ratio of 1:1, and the PBMC is isolated by the use of Lymphoprep Tubes™ (Nycomed, Norway). The PBMC is suspended in RPMI1640 with 2% foetal calf serum (FCS), pen/strep and 2 mM L-glutamine at a concentration of 5×105 c/ml. The cells are pre-incubated for 30 minutes with the test compounds in 96 well tissue culture plates and stimulated for 18 hours with lipopolysaccharide 1 mg/ml (Sigma). The level of TNF-a is measured in the culture supernatant by enzyme immuno assays using primary and secondary biotinylated antibodies from R&D systems. Results are expressed as pIC50 values calculated from inhibition curves using as positive controls the secretion in LPS stimulated wells and as negative controls the secretion in unstimulated cells.
As to `COc1ccc(C(=O)Cc2c(Cl)cncc2Cl)c(OCc2ccccc2)c1OC` [Compound 113, 1-(2-Benzyloxy-3,4-dimethoxy-phenyl)-2-(3,5-dichloro-pyridin-4-yl)-ethanone], the IC50 was under 1000 nM.

`COc1ccc(C(=O)Cc2c(Cl)cncc2Cl)c(OCCCN2C(=O)c3ccccc3C2=O)c1OC` [Compound 186, 2-(3-{6-[2-(3,5-Dichloro-pyridin-4-yl)-acetyl]-2,3-dimethoxy-phenoxy}-propyl)-isoindole-1,3-dione]: the IC50 was under 1000 nM.

The compound `COc1ccc(C(=O)Cc2c(Cl)cncc2Cl)c(OCC(=O)c2ccc3ccccc3c2)c1OC` [Compound 157, 2-(3,5-Dichloro-pyridin-4-yl)-1-[3,4-dimethoxy-2-(2-naphthalen-2-yl-2-oxo-ethoxy)-phenyl]-ethanone] showed an IC50 of under 1000 nM.

`COc1ccc(C(=O)Cc2c(Cl)cncc2Cl)c(O)c1OCC1CC1` [Compound 261, 1-(3-Cyclopropylmethoxy-2-hydroxy-4-methoxy-phenyl)-2-(3,5-dichloro-pyridin-4-yl)-ethanone] gave an IC50 of under 1000 nM.

With `COc1ccc(C(=O)Cc2c(Cl)cncc2Cl)c(OCc2ncon2)c1OC` [Compound 118, 2-(3,5-Dichloro-pyridin-4-yl)-1-[3,4-dimethoxy-2-([1,2,4]oxadiazol-3-ylmethoxy)-phenyl]-ethanone], the IC50 is under 1000 nM.

With `COc1ccc(C(=O)Cc2c(Cl)cncc2Cl)c(OCC(=O)NCc2cccnc2)c1OC` [Compound 230, 2-{6-[2-(3,5-Dichloro-pyridin-4-yl)-acetyl]-2,3-dimethoxy-phenoxy}-N-pyridin-3-ylmethyl-acetamide], the IC50 was under 1000 nM.

Turning to `CCCCCOc1c(C(=O)Cc2c(Cl)cncc2Cl)ccc(OC)c1OC` [Compound 150, 2-(3,5-Dichloro-pyridin-4-yl)-1-(3,4-dimethoxy-2-pentyloxy-phenyl)-ethanone], the IC50 was under 1000 nM.

`COc1ccc(C(=O)Cc2c(Cl)cncc2Cl)c(OCC(=O)NCC2CCCCC2)c1OC` [Compound 219, N-Cyclohexylmethyl-2-{6-[2-(3,5-dichloro-pyridin-4-yl)-acetyl]-2,3-dimethoxy-phenoxy}-acetamide] showed an IC50 of under 1000 nM.

`CCCNC(=O)COc1c(C(=O)Cc2ccncc2)ccc(OC)c1OC` [Compound 289, 2-(2,3-Dimethoxy-6-(2-pyridin-4-yl-acetyl)-phenoxy)-N-propyl-acetamide] had an IC50 of under 1000 nM.

In turn, `COc1ccc(C(=O)Cc2c(Cl)cncc2Cl)c(OCC(C)c2ccccc2)c1OC` (stereo not drawn) [Compound 284, 2-(3,5-Dichloro-pyridin-4-yl)-1-[3,4-dimethoxy-2-(2-phenyl-propoxy)-phenyl]-ethanone] gave an IC50 of under 1000 nM.

For `COc1ccc(C(=O)Cc2c(Cl)cncc2Cl)c(OCC(=O)Nc2ccccc2)c1OC` [Compound 205, 2-{6-[2-(3,5-Dichloro-pyridin-4-yl)-acetyl]-2,3-dimethoxy-phenoxy}-N-phenyl-acetamide], the IC50 is under 1000 nM.

With `COc1ccc(C(=O)Cc2c(Cl)cncc2Cl)c(OCC(=O)NC[C@@H](O)c2ccccc2)c1OC` [Compound 253, (S)-2-{6-[2-(3,5-Dichloro-pyridin-4-yl)-acetyl]-2,3-dimethoxy-phenoxy}-N-(2-hydroxy-2-phenyl-ethyl)-acetamide], the IC50 was under 1000 nM.

Consider `COc1ccc(C(=O)Cc2c(Cl)cncc2Cl)c(OCc2ccccc2C#N)c1OC` [Compound 147, 2-{6-[2-(3,5-Dichloro-pyridin-4-yl)-acetyl]-2,3-dimethoxy-phenoxymethyl}-benzonitrile], for which the IC50 is under 1000 nM.

Compound `COc1ccc(C(=O)Cc2c(Cl)cncc2Cl)c(OCC(=O)NC2CCCCCC2)c1OC` [Compound 217, N-Cycloheptyl-2-{6-(2-(3,5-dichloro-pyridin-4-yl)-acetyl)-2,3-dimethoxy-phenoxy}-acetamide] showed an IC50 of under 1000 nM.

Turning to `COc1ccccc1CNC(=O)COc1c(C(=O)Cc2c(Cl)cncc2Cl)ccc(OC)c1OC` [Compound 218, 2-{6-[2-(3,5-Dichloro-pyridin-4-yl)-acetyl]-2,3-dimethoxy-phenoxy}-N-(2-methoxy-benzyl)-acetamide], the IC50 is under 1000 nM.

Regarding `COc1ccc(C(=O)Cc2c(Cl)cncc2Cl)c(OCC(=O)NCCc2ccccn2)c1OC` [Compound 236, 2-{6-[2-(3,5-Dichloro-pyridin-4-yl)-acetyl]-2,3-dimethoxy-phenoxy}-N-(2-pyridin-2-yl-ethyl)-acetamide], the IC50 is under 1000 nM.

For `COc1ccc(C(=O)Cc2c(Cl)cncc2Cl)c(OCC(=O)NCC(C)(C)C)c1OC` [Compound 214], the IC50 is under 1000 nM.

In turn, `COc1ccc(C(=O)Cc2c(Cl)cncc2Cl)c(OCc2ccc(Cl)s2)c1OC` [Compound 121, 1-[2-(5-Chloro-thiophen-2-ylmethoxy)-3,4-dimethoxy-phenyl]-2-(3,5-dichloro-pyridin-4-yl)-ethanone] had an IC50 of under 1000 nM.

`COc1ccc(C(=O)Cc2c(Cl)cncc2Cl)c(OCC(=O)N[C@H](C)c2ccccc2)c1OC` [Compound 221, (R)-2-{6-[2-(3,5-Dichloro-pyridin-4-yl)-acetyl]-2,3-dimethoxy-phenoxy}-N-(1-phenyl-ethyl)-acetamide]: the IC50 is under 1000 nM.

In turn, `COc1ccc(C(=O)Cc2c(Cl)cncc2Cl)c(OCC(=O)NCCO)c1OC` [Compound 220, 2-{6-[2-(3,5-Dichloro-pyridin-4-yl)-acetyl]-2,3-dimethoxy-phenoxy}-N-(2-hydroxy-ethyl)-acetamide] gave an IC50 of under 1000 nM.

Regarding `CCOc1c(OC)ccc(C(=O)Cc2c(Cl)cncc2Cl)c1OCC` [Compound 104, 2-(3,5-Dichloro-pyridin-4-yl)-1-(2,3-diethoxy-4-methoxy-phenyl)-ethanone], the IC50 was under 1000 nM.

For `COc1ccc(C(=O)Cc2c(Cl)cncc2Cl)c(OCc2cccc(C(F)(F)F)c2)c1OC` [Compound 162, 2-(3,5-Dichloro-pyridin-4-yl)-1-[3,4-dimethoxy-2-(3-trifluoromethyl-benzyloxy)-phenyl]-ethanone], the IC50 was under 1000 nM.

Regarding `COc1ccc(C(=O)Cc2c(Cl)cncc2Cl)c(OCC(=O)NCCCN(C)C)c1OC` [Compound 225, 2-{6-[2-(3,5-Dichloro-pyridin-4-yl)-acetyl]-2,3-dimethoxy-phenoxy}-N-(3-dimethylamino-propyl)-acetamide], the IC50 is under 1000 nM.

The compound `COc1cccc(COc2c(C(=O)Cc3c(Cl)cncc3Cl)ccc(OC)c2OC)c1` [Compound 177, 2-(3,5-Dichloro-pyridin-4-yl)-1-[3,4-dimethoxy-2-(3-methoxy-benzyloxy)-phenyl]-ethanone] showed an IC50 of under 1000 nM.

In the case of `COc1ccc(C(=O)Cc2c(Cl)cncc2Cl)c(OCC(=O)NCc2cccc(C)c2)c1OC` [Compound 239, 2-{6-[2-(3,5-Dichloro-pyridin-4-yl)-acetyl]-2,3-dimethoxy-phenoxy}-N-(3-methyl-benzyl)-acetamide], the IC50 was under 1000 nM.

As for `COc1ccc(C(=O)Cc2c(Cl)cncc2Cl)c(OCCc2ccc(S(C)(=O)=O)cc2)c1OC` [Compound 282, 2-(3,5-Dichloro-pyridin-4-yl)-1-{2-[2-(4-methanesulfonyl-phenyl)-ethoxy]-3,4-dimethoxy-phenyl}-ethanone], the IC50 is under 1000 nM.

As to `COc1ccc(C(=O)Cc2c(Cl)c[n+]([O-])cc2Cl)c(OCCc2ccccc2)c1OC` [Compound 271, 2-(3,5-Dichloro-1-oxy-pyridin-4-yl)-1-(3,4-dimethoxy-2-phenethyloxy-phenyl)-ethanone], the IC50 is under 1000 nM.
